The subject of this assay is Plasmodium falciparum. Kind of assay: OSM: Erythrocyte assay. NF54 with 3H-Hypoxanthine at 72hr time point. The class given is functional, organism-based.

Each structure is given as a SMILES string.

For orientation: EC50 means the concentration that produces a half-maximal response.

In turn, `[O-][n+]1cc(OCCc2ccc(F)c(F)c2)n2c(-c3ccc(OC(F)F)cc3)nnc2c1` registered an EC50 of 4.01 µM.
For `Fc1ccc(CCOc2cnc(Cl)c3nnc(-c4ccc(OC(F)F)cc4)n23)cc1F` the value was 0.16 µM; for `OCCc1cncc2nnc(-c3ccc(OC(F)F)cc3)n12`, 10 µM; for `OCCC1CNCc2nnc(-c3ccc(OC(F)F)cc3)n21` (stereo unspecified), 8.37 µM.
The compound `Fc1ccc(N2CC(Oc3cncc4nnc(-c5ccc(OC(F)F)cc5)n34)C2)cc1F` displayed an EC50 of 0.43 µM.
Compound `FC(F)Oc1ccc(-c2nnc3cncc(N4CCC(c5ccccc5)C4)n23)cc1` (stereo unspecified) registered an EC50 of 2 µM.
For `O=C(NCc1cccc(Cl)c1)c1cncc2nnc(-c3ccc(OC(F)F)cc3)n12` the value was 0.25 µM; for `Fc1ccc(CCOc2cncc3nnc(C4CCOCC4)n23)cc1F`, 10 µM; for `FC(F)Oc1ccc(-c2nnc3n2CCNC3)cc1`, 10 µM.
For `CC(=O)N1CCC(c2nnc3cncc(OCCc4ccc(F)c(F)c4)n23)CC1` the value was 10 µM.
For `NCC(=O)N1CCn2c(nnc2-c2ccc(OC(F)F)cc2)C1` the value was 10 µM.
As for `O=C(c1cncc2nnc(-c3ccc(OC(F)F)cc3)n12)N1Cc2ccccc2C1`, it took 10 µM to reach a half-maximal effect (EC50).
For `O=C(NCc1ccc(Cl)cc1)c1cncc2nnc(-c3ccc(OC(F)F)cc3)n12` the value was 1.34 µM; for `O=C(NCc1ccccc1Cl)c1cncc2nnc(-c3ccc(OC(F)F)cc3)n12`, 0.38 µM.
For `O=C(NCC1CCOCC1)c1cncc2nnc(-c3ccc(OC(F)F)cc3)n12` the value was 10 µM; for `Fc1ccc(CCOc2cncc3nnc(Nc4ccc(F)c(F)c4)n23)cc1F`, 0.85 µM.
Consider `Fc1ccc(OC2CN(c3cncc4nnc(-c5ccc(OC(F)F)cc5)n34)C2)cc1F`, for which the midpoint of the response, the EC50, lay at 4.96 µM.
For `Fc1ccc(CCOc2cncc3nnc(N4CCCCC4)n23)cc1F` the value was 2.63 µM.
Turning to `O=C(c1cncc2nnc(-c3ccc(OC(F)F)cc3)n12)N1CCN(c2ccccn2)CC1`, the EC50 is 10 µM. This EC50 is about 3.8-fold higher than that of the compound before.
For `O=C(NCCN1CCOCC1)c1cncc2nnc(-c3ccc(OC(F)F)cc3)n12` the value was 10 µM.
On to `O=C(c1cncc2nnc(-c3ccc(OC(F)F)cc3)n12)N1CCOCC1`, for which the EC50 was determined as 10 µM.
For `C[C@H](NC(=O)c1cncc2nnc(-c3ccc(OC(F)F)cc3)n12)c1ccccc1` the value was 1.6 µM; for `O=C(c1cncc2nnc(-c3ccc(OC(F)F)cc3)n12)N1CCCC1`, 10 µM.
`CS(=O)(=O)N1CCN(C(=O)c2cncc3nnc(-c4ccc(OC(F)F)cc4)n23)CC1` had an EC50 of 10 µM.
`C[C@@H](NC(=O)c1cncc2nnc(-c3ccc(OC(F)F)cc3)n12)c1ccccc1` registered an EC50 of 1.36 µM. This EC50 lies about 7.4-fold lower than the previous one.
`O=c1[nH]cc(OCCc2ccc(F)c(F)c2)n2c(-c3ccc(OC(F)F)cc3)nnc12` showed an EC50 of 4.13 µM.
For `O=C(Nc1ccccn1)c1cncc2nnc(-c3ccc(OC(F)F)cc3)n12` the value was 10 µM; for `O=C(NCCc1ccccc1)c1cncc2nnc(-c3ccc(OC(F)F)cc3)n12`, 3.17 µM.
For `Fc1ccc(CCOc2cncc3nnc(N4Cc5ccccc5C4)n23)cc1F` the value was 0.47 µM.
For the compound `CCN(CC)c1ncc(OCCc2ccc(F)c(F)c2)n2c(-c3ccc(OC(F)F)cc3)nnc12`, the midpoint of the response, the EC50, lay at 6.86 µM.
For `O=S(=O)(Cc1ccc(C(F)(F)F)cc1)Nc1cncc2nnc(-c3ccc(OC(F)F)cc3)n12` the value was 10 µM; for `O=C(c1cncc2nnc(-c3ccc(OC(F)F)cc3)n12)N1CCCC1c1ccccc1` (stereo unspecified), 3.56 µM; for `CN(Cc1cccc(Cl)c1)C(=O)c1cncc2nnc(-c3ccc(OC(F)F)cc3)n12`, 1.06 µM.
For `FC(F)Oc1ccc(-c2nnc3cncc(CCCc4ccccc4)n23)cc1` the value was 0.28 µM; for `FC(F)Oc1ccc(-c2nnc3cncc(CCN4CCOCC4)n23)cc1`, 10 µM.
`FC(F)Oc1ccc(-c2nnc3n2C(CCCc2ccccc2)CNC3)cc1` (stereo unspecified) yielded an EC50 of 8.76 µM. This EC50 and that of the compound before are within 1.5-fold of each other.
For `Nc1ncc(OCCc2ccc(F)c(F)c2)n2c(-c3ccc(OC(F)F)cc3)nnc12` the value was 10 µM; for `FC(F)Oc1ccc(-c2nnc3cncc(CCN4Cc5ccccc5C4)n23)cc1`, 10 µM; for `FC(F)Oc1ccc(-c2nnc3cncc(N4CC(c5ccccc5)C4)n23)cc1`, 10 µM.
For `Fc1ccc(COCc2cncc3nnc(-c4ccc(OC(F)F)cc4)n23)cc1F` the value was 0.36 µM; for `Cc1ncc(OCCc2ccc(F)c(F)c2)n2c(-c3ccc(OC(F)F)cc3)nnc12`, 6.92 µM.
Turning to `O=C(Nc1cccc(Cl)c1)c1cncc2nnc(-c3ccc(OC(F)F)cc3)n12`, the EC50 turned out to be 0.18 µM.
For `O=C(NCc1ccc(F)c(F)c1)c1cncc2nnc(-c3ccc(OC(F)F)cc3)n12` the value was 0.28 µM; for `O=C(NCc1cncc2nnc(-c3ccc(OC(F)F)cc3)n12)c1cccc(Cl)c1`, 10 µM; for `FC(F)Oc1ccc(-c2nnc3cncc(Oc4ccc(Cl)cc4)n23)cc1`, 2.96 µM.
In turn, `CO[C@@H](COc1cncc2nnc(-c3ccc(C#N)cc3)n12)c1ccc(F)c(F)c1` displayed an EC50 of 0.04 µM.
For `Fc1ccc(CCOc2cncc3ncc(-c4ccc(Cl)cc4)n23)cc1F` the value was 0.11 µM; for `FC(F)Oc1ccc(-c2nnc3cncc(CN4Cc5ccccc5C4)n23)cc1`, 0.11 µM; for `O=C(Nc1ccc(F)cc1)c1cncc2nnc(-c3ccc(OC(F)F)cc3)n12`, 3.74 µM.
For `O=C(Nc1ccc(F)c(F)c1)c1cncc2nnc(-c3ccc(OC(F)F)cc3)n12` the value was 0.65 µM; for `Fc1ccc(CCCc2cncc3nnc(-c4ccc(OC(F)F)cc4)n23)cc1F`, 0.32 µM.
For `O=C(Nc1ccc(Cl)cc1)c1cncc2nnc(-c3ccc(OC(F)F)cc3)n12` the value was 5 µM.
`Fc1ccc2c(c1)CCN2c1nnc2cncc(OCCc3ccc(F)c(F)c3)n12` registered an EC50 of 2.05 µM. This EC50 lies about 2.4-fold lower than the previous one.
For `Fc1ccc(CCOc2cncc3cnc(-c4ccc(Cl)cc4)n23)cc1F` the value was 0.83 µM; for `CN(C)[C@@H](COc1cncc2nnc(-c3ccc(OC(F)F)cc3)n12)c1ccc(F)c(F)c1`, 0.0441 µM; for `Fc1ccc(C2(COc3cncc4nnc(-c5ccc(OC(F)F)cc5)n34)COC2)cc1F`, 0.483 µM.
On to `N#Cc1ccc(-c2nnc3cncc(OCC(OC(F)F)c4ccc(F)c(F)c4)n23)cc1` (stereo unspecified), for which the response was half-maximal at 0.0167 µM (EC50).
For `FC(F)Oc1ccc(-c2nnc3cncc(Oc4ccc5ccccc5c4)n23)cc1` the value was 0.115 µM; for `FC(F)Oc1ccc(-c2nnc3cncc(OCC(F)(F)F)n23)cc1`, 10 µM.
On to `CN[C@@H](COc1cncc2nnc(-c3ccc(OC(F)F)cc3)n12)c1ccc(F)c(F)c1`, for which the EC50 is 10 µM.
For `FC(F)Oc1ccc(-c2nnc3cncc(Oc4ccc(C(F)(F)F)cc4)n23)cc1` the value was 0.383 µM; for `FC(F)Oc1ccc(-c2nnc3cncc(Oc4ccc(Cl)c(Cl)c4)n23)cc1`, 0.455 µM.
The compound `O=C(Nc1ccc(F)c(Cl)c1)c1cncc2nnc(-c3ccc(OC(F)F)cc3)n12` registered an EC50 of 0.191 µM.
For `O=C(c1cncc2nnc(-c3ccc(OC(F)F)cc3)n12)N1CCc2cc(F)ccc21` the value was 10 µM; for `FC(F)Oc1ccc(-c2nnc3cncc(Nc4ccc(Cl)c(Cl)c4)n23)cc1`, 9.63 µM.
For `FC(F)Oc1ccc(-c2nnc3cncc(Oc4cccc(Cl)c4)n23)cc1` the value was 3.07 µM; for `Fc1ccc(CCOc2cncc3nnc(-c4ccc(C(F)(F)F)nc4)n23)cc1F`, 0.262 µM; for `O=C(Nc1ccnc(C(F)(F)F)c1)c1cncc2nnc(-c3ccc(OC(F)F)cc3)n12`, 0.14 µM.
For `Fc1ccc(CCOc2cn3c(-c4ccc(OC(F)F)cc4)nnc3cn2)cc1F` the value was 0.0338 µM.
Take `Fc1ccc(COc2cn3c(-c4ccc(OC(F)F)cc4)nnc3cn2)cc1F`: the EC50 was found to be 0.521 µM.
For `OCC(COc1cncc2nnc(-c3ccc(OC(F)F)cc3)n12)c1ccc(F)c(F)c1` (stereo unspecified) the value was 0.0243 µM.
In turn, `Fc1ccc(CNc2cn3c(-c4ccc(OC(F)F)cc4)nnc3cn2)cc1F` displayed an EC50 of 10 µM. This EC50 is about 410-fold higher than that of the compound before.
`Fc1ccc(C(COc2cncc3nnc(-c4ccc(OC(F)F)cc4)n23)N2CCOCC2)cc1F` (stereo unspecified) displayed a concentration giving a half-maximal response (EC50) of 0.613 µM.
For `CC(C)(C)c1ccc(Oc2cncc3nnc(-c4ccc(OC(F)F)cc4)n23)cc1` the value was 0.738 µM.
`FC(F)Oc1ccc(-c2nnc3cncc(Oc4ccc5c(c4)CCCC5)n23)cc1`: a half-maximal response (EC50) required 2.58 µM.
For `FC(F)Oc1ccc(-c2nnc3cncc(Oc4ccc(Cl)c(C(F)(F)F)c4)n23)cc1` the value was 0.597 µM; for `N[C@@H](COc1cncc2nnc(-c3ccc(OC(F)F)cc3)n12)c1ccc(F)c(F)c1`, 0.279 µM.
For the compound `OC[C@H](Nc1cncc2nnc(-c3ccc(OC(F)F)cc3)n12)c1ccc(F)c(F)c1`, the EC50 is 0.57 µM.
Take `Fc1ccc(-c2cnn(-c3cncc4nnc(-c5ccc(OC(F)F)cc5)n34)c2)cc1F`: the EC50 was 6.72 µM.
For `O=C(Nc1ccc(F)cc1Cl)c1cncc2nnc(-c3ccc(OC(F)F)cc3)n12` the value was 5.58 µM; for `Fc1ccc(Nc2cn3c(-c4ccc(OC(F)F)cc4)nnc3cn2)cc1F`, 10 µM.
For `O=C(NCc1cc(Cl)ccc1Cl)c1cncc2nnc(-c3ccc(OC(F)F)cc3)n12` the value was 0.332 µM.
`O=C(NCc1cccc(C(F)(F)F)c1Cl)c1cncc2nnc(-c3ccc(OC(F)F)cc3)n12` returned an EC50 of 0.309 µM.
`Fc1ccc(Cc2nccn2-c2cncc3nnc(-c4ccc(OC(F)F)cc4)n23)cc1F`: the EC50 worked out at 10 µM.
For `Cc1nn(-c2ccc(F)cc2)c(C)c1-c1nnc2cncc(OCC(F)(F)F)n12` the value was 10 µM; for `FC(F)Oc1ccc(-c2nnc3cncc(Oc4ccc(S(F)(F)(F)(F)F)cc4)n23)cc1`, 0.263 µM.
For `Fc1ccc(Oc2cn3c(-c4ccc(OC(F)F)cc4)nnc3cn2)cc1F` the value was 3.45 µM; for `Fc1ccc(CCNc2cn3c(-c4ccc(OC(F)F)cc4)nnc3cn2)cc1`, 10 µM; for `Cc1nn(-c2ccc(F)cc2)c(C)c1-c1nnc2cncc(Oc3ccc(Cl)c(Cl)c3)n12`, 10 µM.
For `Fc1ccc([C@H]2[C@@H](Oc3cncc4nnc(-c5ccc(OC(F)F)cc5)n34)CN2C2CC2)cc1F` the value was 0.61 µM; for `O=C1[C@H](Oc2cncc3nnc(-c4ccc(OC(F)F)cc4)n23)[C@H](c2ccc(F)c(F)c2)N1C1CC1`, 1.12 µM.

The values are drawn from ChEMBL document CHEMBL3137547, “Open Source Malaria Deposition 2. http://malaria.ourexperiment.org”.
